Assay results reported in ChEMBL document CHEMBL3091294, “Design, synthesis and evaluation of novel 4-dimethylamine flavonoid derivatives as potential multi-functional anti-Alzheimer agents” (Bioorg Med Chem, 2013).

How the values were obtained:
[1] = molecular target: Cholinesterase (Equus caballus, UniProt P81908)
Description: Inhibition of equine serum BChE using butylthiocholine chloride as substrate incubated for 15 mins prior to substrate addition by Ellman's method

[2] = molecular target: Amyloid-beta precursor protein (Homo sapiens) (UniProt P05067); assay: Inhibition of amyloid beta (1 to 42) aggregation (unknown origin) at 20 uM after 48 hrs by thioflavin-T fluorescence assay relative to control
Sequence of Amyloid-beta precursor protein (Homo sapiens) (P05067 whole entry): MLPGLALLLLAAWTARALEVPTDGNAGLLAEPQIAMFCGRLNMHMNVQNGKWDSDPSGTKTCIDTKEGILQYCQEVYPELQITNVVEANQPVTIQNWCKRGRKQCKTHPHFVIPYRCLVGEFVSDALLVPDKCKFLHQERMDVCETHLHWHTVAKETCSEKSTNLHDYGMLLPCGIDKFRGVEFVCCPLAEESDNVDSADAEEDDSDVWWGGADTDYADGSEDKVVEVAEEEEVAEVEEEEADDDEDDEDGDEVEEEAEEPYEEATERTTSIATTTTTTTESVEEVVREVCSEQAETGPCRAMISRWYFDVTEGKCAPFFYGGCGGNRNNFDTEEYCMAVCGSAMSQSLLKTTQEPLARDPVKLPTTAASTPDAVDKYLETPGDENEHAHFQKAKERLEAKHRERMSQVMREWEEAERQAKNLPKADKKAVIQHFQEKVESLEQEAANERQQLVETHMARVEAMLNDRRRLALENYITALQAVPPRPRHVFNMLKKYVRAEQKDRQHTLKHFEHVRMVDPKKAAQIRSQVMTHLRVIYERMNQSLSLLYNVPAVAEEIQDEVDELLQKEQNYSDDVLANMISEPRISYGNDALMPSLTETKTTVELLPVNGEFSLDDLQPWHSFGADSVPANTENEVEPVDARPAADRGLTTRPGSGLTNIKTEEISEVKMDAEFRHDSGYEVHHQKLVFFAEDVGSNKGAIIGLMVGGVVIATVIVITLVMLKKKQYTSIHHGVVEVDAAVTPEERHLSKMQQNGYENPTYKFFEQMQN

[3] = molecular target: T1, Acetylcholinesterase (Electrophorus electricus, UniProt O42275)
T1 sequence (O42275 whole entry): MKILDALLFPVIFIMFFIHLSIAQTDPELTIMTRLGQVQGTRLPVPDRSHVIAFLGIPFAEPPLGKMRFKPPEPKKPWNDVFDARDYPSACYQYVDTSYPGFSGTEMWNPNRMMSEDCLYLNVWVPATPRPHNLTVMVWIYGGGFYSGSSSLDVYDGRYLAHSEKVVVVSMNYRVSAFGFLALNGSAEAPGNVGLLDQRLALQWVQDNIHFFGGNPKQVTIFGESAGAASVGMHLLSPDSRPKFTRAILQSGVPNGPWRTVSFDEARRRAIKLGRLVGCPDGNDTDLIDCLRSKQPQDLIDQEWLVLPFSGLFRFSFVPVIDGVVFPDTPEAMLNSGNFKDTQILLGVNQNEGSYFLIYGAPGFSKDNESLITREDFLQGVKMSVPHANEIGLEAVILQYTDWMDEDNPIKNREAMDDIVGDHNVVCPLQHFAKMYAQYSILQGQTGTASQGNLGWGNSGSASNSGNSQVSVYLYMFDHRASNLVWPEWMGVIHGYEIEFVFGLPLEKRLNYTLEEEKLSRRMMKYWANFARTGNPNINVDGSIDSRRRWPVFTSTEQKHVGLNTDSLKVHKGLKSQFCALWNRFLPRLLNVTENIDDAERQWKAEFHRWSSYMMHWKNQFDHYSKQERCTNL
Description: Inhibition of electric eel AChE using acetylthiocholine chloride as substrate incubated for 15 mins prior to substrate addition by Ellman's method

[4] = Antioxidant activity assessed as trolox equivalent of peroxyl radical scavenging activity at 1 to 5 uM after 15 mins by oxygen radical absorbance capacity-fluorescein assay; type: functional
[5] = molecular target: T1, Acetylcholinesterase; assay: Mixed-type inhibition of electric eel AChE using acetylthiocholine chloride as substrate incubated for 15 mins prior to substrate addition by Lineweaver-Burk plot analysis

Sequence of Cholinesterase (P81908 whole entry): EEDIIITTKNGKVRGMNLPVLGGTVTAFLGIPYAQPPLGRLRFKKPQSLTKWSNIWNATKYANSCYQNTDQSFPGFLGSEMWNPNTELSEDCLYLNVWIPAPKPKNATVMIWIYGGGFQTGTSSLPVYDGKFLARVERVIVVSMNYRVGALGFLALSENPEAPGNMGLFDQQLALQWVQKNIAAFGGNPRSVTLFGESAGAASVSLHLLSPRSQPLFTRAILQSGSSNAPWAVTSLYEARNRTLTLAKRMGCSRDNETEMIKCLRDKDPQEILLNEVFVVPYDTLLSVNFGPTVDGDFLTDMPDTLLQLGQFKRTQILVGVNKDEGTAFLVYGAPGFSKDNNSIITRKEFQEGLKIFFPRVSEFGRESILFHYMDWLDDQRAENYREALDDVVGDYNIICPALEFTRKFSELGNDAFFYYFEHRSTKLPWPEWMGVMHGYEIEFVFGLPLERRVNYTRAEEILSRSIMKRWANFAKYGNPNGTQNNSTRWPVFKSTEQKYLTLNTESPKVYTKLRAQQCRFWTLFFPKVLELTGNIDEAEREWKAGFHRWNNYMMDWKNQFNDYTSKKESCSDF

SMILES | IC50 [1] [µM] | inhibition [2] [%] | IC50 [3] [µM] | Activity [4] | Ki [5] [µM]
CN(CCCCCCOc1ccc2c(=O)cc(-c3ccc(N(C)C)cc3)oc2c1)Cc1ccccc1 | > 50 | 46.5 | 7.85 |  | 
CN(CCCCCCCCCCCCOc1ccc2c(=O)cc(-c3ccc(N(C)C)cc3)oc2c1)Cc1ccccc1 | > 50 | 48.1 | 33.2 |  | 
CN(CCCCOc1ccc2c(=O)cc(-c3ccc(N(C)C)cc3)oc2c1)Cc1ccccc1 | > 50 | 39.1 | 8.29 |  | 
CN(C)c1ccc(-c2cc(=O)c3ccc(OCCCCCCN4CCCC4)cc3o2)cc1 | 11.5 | 32.6 | 9.18 |  | 
CN(C)c1ccc(-c2cc(=O)c3ccc(OCCCCCCCCN4CCCCC4)cc3o2)cc1 | 8.72 | 34.8 | 7.88 | 1.5 | 
CCN(CC)CCCCCCCCCCOc1ccc2c(=O)cc(-c3ccc(N(C)C)cc3)oc2c1 | 2.31 | 33.4 | 3.74 | 1.5 | 
CN(C)c1ccc(-c2cc(=O)c3ccc(OCCCCN4CCCCC4)cc3o2)cc1 | 6.12 | 30.6 | 3.04 |  | 
CCN(CC)CCCCCCOc1ccc2c(=O)cc(-c3ccc(N(C)C)cc3)oc2c1 | 4.61 | 38.1 | 3.11 |  | 
CN(C)c1ccc(-c2cc(=O)c3ccc(OCCCCCCCCCCN4CCCC4)cc3o2)cc1 | 0.82 | 38.6 | 2.26 | 1.5 | 
CN(C)c1ccc(-c2cc(=O)c3ccc(OCCCCCCCCCCN4CCCCC4)cc3o2)cc1 | 2.42 | 40.7 | > 50 | 1.5 | 
CN(C)c1ccc(-c2cc(=O)c3ccc(OCCCCN4CCOCC4)cc3o2)cc1 | 10.1 | 44.7 | > 50 |  | 
CN(C)c1ccc(-c2cc(=O)c3ccc(OCCCCCCN4CCCCC4)cc3o2)cc1 | 5.52 | 25.4 | 6.73 |  | 
CN(CCCCCCCCCCOc1ccc2c(=O)cc(-c3ccc(N(C)C)cc3)oc2c1)Cc1ccccc1 | > 50 | 29.4 | 11.4 | 1.5 | 
CN(C)c1ccc(-c2cc(=O)c3ccc(OCCCCCCCCN4CCCC4)cc3o2)cc1 | 2.6 | 42.1 | 1.99 | 1.5 | 
CN(C)c1ccc(-c2cc(=O)c3ccc(OCCCCN4CCCC4)cc3o2)cc1 | 6.14 | 36.6 | 2.77 |  | 
CCN(CC)CCCCCCCCOc1ccc2c(=O)cc(-c3ccc(N(C)C)cc3)oc2c1 | 5.01 | 45.8 | 1.83 | 1.5 | 0.386
CCN(CC)CCCCOc1ccc2c(=O)cc(-c3ccc(N(C)C)cc3)oc2c1 | 7.88 | 33.2 | 2.24 |  | 
CN(CCCCCCCCOc1ccc2c(=O)cc(-c3ccc(N(C)C)cc3)oc2c1)Cc1ccccc1 | > 50 | 39.5 | 24 | 1.5 | 
